Experiments:
[1] = Example 5: urinary excretion of oxymorphone and metabolites in hepatic impairment vs healthy controls; conditions: for mean amount excreted in the urine: percent of administered dose, through 120 hours; for conversion of oxymorphone to the metabolite reduced by: from urine ratios
Source text: (§1) While in the clinic, the subjects were to refrain from strenuous physical activity.

[2] = Example 5: plasma pharmacokinetics of EN3202 20 mg in hepatic impairment vs healthy controls; parameters: AUC point estimate, mild hepatic impairment vs healthy controls / Cmax point estimate, mild hepatic impairment vs healthy controls: unit not given beside the values; conditions: for AUCT / Cmax / T½ / λz / AUC: mean (SD); for Tmax: median (range); for AUC: plasma, single 20 mg EN3202, fasting; for mean (±SD) ratio of plasma metabolite AUC to oxymorphone AUC: AUC converted to molar concentrations; for increase in average AUC relative to controls: arithmetic means; for conversion of oxymorphone to the metabolite reduced by: from mean plasma metabolite ratios
Method: as §1
All study medications were supplied by the sponsor. […] A single 20 mg dose EN3202 was administered following an overnight fast (from approximately 22:00 on the evening prior to dose administration) at approximately 08:00, and participants were not allowed to eat until at least four hours after the dose.
All doses were administered with 240 mL of ambient water. Participants were instructed to drink all of the water.
Pharmacokinetic parameters were calculated using model-independent methods.
All pharmacokinetic results are summarized using appropriate descriptive statistics. […] One-way ANOVA was conducted using the model PKVAR=group, where group was mild hepatic impairment, moderate-severe hepatic impairment, or healthy control. Point estimates of the impaired versus control group differences and the corresponding 90% confidence limits were constructed.

[3] = 10 mg oral oxymorphone, cited from earlier work
[4] = moderate-severe hepatic impairment

SMILES	mean amount excreted in the urine ([1]; control group)	mean amount excreted in the urine ([1]; mild hepatic impairment)	mean amount excreted in the urine [1, 4]	AUCT ([2]; Healthy Controls)	Cmax ([2]; Healthy Controls)	T½ ([2]; Healthy Controls)	λz ([2]; Healthy Controls)	Tmax ([2]; Healthy Controls)	AUC ([2]; Healthy Controls)	AUCT ([2]; Mild Impairment)	Cmax ([2]; Mild Impairment)	T½ ([2]; Mild Impairment)	λz ([2]; Mild Impairment)	Tmax ([2]; Mild Impairment)	AUC ([2]; Mild Impairment)	AUCT ([2]; Moderate-Severe Impairment)	Cmax ([2]; Moderate-Severe Impairment)	T½ ([2]; Moderate-Severe Impairment)	λz ([2]; Moderate-Severe Impairment)	Tmax ([2]; Moderate-Severe Impairment)	other results
CN1CC[C@]23c4c5ccc(O)c4O[C@H]2C(O)CC[C@@]3(O)[C@H]1C5 (stereo partly drawn) [6-OH-oxymorphone, 6-hydroxy oxymorphone]	0.25%	0.71%	0.88%	10.80 (9.65) ng · hr/mL	0.72 (0.32) ng/mL	19.19 (11.75) hr	0.0532 (0.0356) hr^−1	1.25 (1.0-4.0) hr	14.76 (11.51) ng · hr/mL	14.11 (9.73) ng · hr/mL	1.12 (0.79) ng/mL	17.54 (13.12) hr	0.0545 (0.0269) hr^−1	1.25 (0.5-3.0) hr	17.35 (11.17) ng · hr/mL	29.25 (20.17) ng · hr/mL	1.78 (1.00) ng/mL	13.87 (8.02) hr	0.0632 (0.0303) hr^−1	1.75 (1.0-6.0) hr	urinary excretion essentially complete by ([1]; after single 20 mg dose): ≤ 96 h; AUC ([2]; Moderate-Severe Impairment): 32.12 (19.80) ng · hr/mL; mean (±SD) ratio of plasma metabolite AUC to oxymorphone AUC ([2]; controls): 0.66 (0.30); increase in average AUC relative to controls ([2]; mild hepatic impairment): 1.18 fold; conversion of oxymorphone to the metabolite reduced by ([2]; mild hepatic impairment): approximately 17%; AUC increase relative to healthy controls ([2]; mild hepatic impairment, log-transformed comparison): 1.36 fold; mean (±SD) ratio of plasma metabolite AUC to oxymorphone AUC ([2]; mild impairment): 0.55 (0.10); Cmax increase relative to healthy controls ([2]; mild impairment, log-transformed comparison): 1.40 fold; conversion of oxymorphone to the metabolite reduced by [2, 4]: ~26%; mean (±SD) ratio of plasma metabolite AUC to oxymorphone AUC ([2]; moderate-severe impairment): 0.49 (0.37); increase in average AUC relative to controls ([2]; moderate-severe impairment): 2.18 fold; Urinary recovery, conjugated [3]: 2.6%; Urinary recovery, free [3]: ~0.3%; Urinary recovery, of the dose ([3]; free plus conjugated): approximately 3%
CN1CC[C@]23c4c5ccc(O[C@@H]6O[C@H](C(=O)O)[C@@H](O)[C@H](O)[C@H]6O)c4O[C@H]2C(=O)CC[C@@]3(O)[C@H]1C5 [Oxymorphone-3-glucuronide, oxymorphone-3-glucuronide]	38.1%	39.3%	33.7%	2886.8 (883.9) ng · hr/mL	234.3 (41.7) ng/mL	8.89 (3.00) hr	0.0859 (0.0264) hr^−1	3.0 (1.5-4.0) hr	2979.6 (896.1) ng · hr/mL	2836.7 (1091.9) ng · hr/mL	274.1 (95.8) ng/mL	8.21 (3.87) hr	0.0974 (0.0367) hr^−1	3.0 (3.0-4.0) hr	2954.1 (1136.2) ng · hr/mL	2629.3 (1457.8) ng · hr/mL	212.0 (100.5) ng/mL	7.40 (2.98) hr	0.1075 (0.0435) hr^−1	3.5 (3.0-4.0) hr	mean ratio metabolite:oxymorphone excreted in the urine ([1]; healthy controls): 79.05; mean ratio metabolite:oxymorphone excreted in the urine ([1]; mild hepatic impairment): 39.43; conversion of oxymorphone to the metabolite reduced by ([1]; mild hepatic impairment): approximately 50%; mean ratio metabolite:oxymorphone excreted in the urine [1, 4]: 33.76; conversion of oxymorphone to the metabolite reduced by [1, 4]: ~57%; AUC ([2]; Moderate-Severe Impairment): 2713.9 (1498.6) ng · hr/mL; mean (±SD) ratio of plasma metabolite AUC to oxymorphone AUC ([2]; controls): 104.1 (39.5); circulating concentrations exceed those of the parent compound by ([2]; healthy control group): approximately 100 fold; AUC point estimate, mild hepatic impairment vs healthy controls ([2]; mild hepatic impairment): 0.972; Cmax point estimate, mild hepatic impairment vs healthy controls ([2]; mild hepatic impairment): 1.133; conversion of oxymorphone to the metabolite reduced by ([2]; mild hepatic impairment): approximately 35%; mean (±SD) ratio of plasma metabolite AUC to oxymorphone AUC ([2]; mild impairment): 67.2 (27.0); conversion of oxymorphone to the metabolite reduced by [2, 4]: ~56%; AUC as percent of control ([2]; moderate-severe impairment): approximately 80%; Cmax as percent of control ([2]; moderate-severe impairment): approximately 80%; circulating concentrations exceed those of the parent compound by ([2]; moderate-severe impairment): 45 fold; mean (±SD) ratio of plasma metabolite AUC to oxymorphone AUC ([2]; moderate-severe impairment): 45.52 (39.2); mean metabolite-to-parent ratio lower than in the control group ([2]; moderate-severe impairment, in both plasma and urine): 2,3 fold

Source: patent publication US20080318993A1 (Endo Pharmaceuticals, Inc., priority 2007, published 2008)
